# Values of other authors as cited in patent US11053214B2, “Compositions and methods related to pyridinoylpiperidine 5-HT1F agonists” (COLUCID PHARMACEUTICALS, INC., priority 2016, dated 2021).
# Legend:
# migraine = details: early clinical proof-of-concept study
# [1] = system: other 5-HT1 receptor subtypes
# rabbit saphenous vein = details: concentrations up to 0.1 mM
Compound,efficacy in the acute treatment of migraine (migraine),affinity higher for 5-HT1F receptors than for other 5-HT1 receptor subtypes [1],constriction of rabbit saphenous vein (rabbit saphenous vein)
CN1CCC(c2c[nH]c3ccc(NC(=O)c4ccc(F)cc4)cc23)CC1 [LY334370],proved effective,–,–
"CN1CCC(C(=O)c2cccc(NC(=O)c3c(F)cc(F)cc3F)n2)CC1.O=C(O)CCC(=O)O [Compound I, hemisuccinate salt of 2,4,6-trifluoro-N-[6-(1-methyl-piperidine-4-carbonyl)-pyridin-2-yl]-benzamide]",–,more than 450 fold,did not constrict
